Test: xn = mol fraction of the nth substance listed
Conditions: 101.3 kPa, Liquid; for viscosity: Capillary tube (Ostwald / Ubbelohde) method

OCCCO [propan-1,3-diol] + O
Conditions	mass density, 298.15 K [kg/m3]	mass density, 308.15 K [kg/m3]	mass density, 318.15 K [kg/m3]	speed of sound, 298.15 K [m/s]	speed of sound, 308.15 K [m/s]	speed of sound, 318.15 K [m/s]	viscosity, 298.15 K [mPa·s]	viscosity, 308.15 K [mPa·s]	viscosity, 318.15 K [mPa·s]
x2 = 0.0622	1050.19	1043.88	1037.53	1650.1	1627.1	1609.1	37.15	25.31	15.8
x2 = 0.1496	1050.32	1044.01	1037.64	1654.3	1634.1	1616	32.92	22.46	14.16
x2 = 0.2563	1050.38	1044.07	1037.68	1670.2	1645.9	1627.8	27.68	18.9	12.19
x2 = 0.35	1050.3	1043.97	1037.55	1693.5	1662.2	1643	23.09	15.8	10.48
x2 = 0.4555	1049.74	1043.39	1036.94	1717.8	1681	1661	18.09	12.44	8.554
x2 = 0.5	1049.21	1042.86	1036.42	1723.1	1688	–	16.07	11.08	7.749
x2 = 0.5548	1048.18	1041.87	–	1726.1	1695.1	–	13.67	9.49	6.767
x2 = 0.6522	1044.85	1038.75	–	1723.3	1702.2	–	9.731	6.881	5.075
x2 = 0.7553	1038.16	1032.55	–	1712.1	1698.8	–	6.136	4.495	3.415
x2 = 0.8522	1027.32	1022.53	–	1689.1	1676.1	–	3.434	2.66	2.057
x2 = 0.9085	1018.19	1014.02	–	1653.2	1642.1	–	2.22	1.794	1.397
x2 = 0.9147	1017.03	1012.94	–	1646.8	1637.1	–	2.104	1.708	1.331
x2 = 0.9255	1014.92	1010.96	–	1636.1	1627.1	–	1.91	1.562	1.221
x2 = 0.935	1012.97	1009.13	–	1623.9	1617.2	–	1.749	1.439	1.127
x2 = 0.9548	1008.63	1005.04	–	1596	1594.1	–	1.442	1.197	0.945
x2 = 0.9556	1008.44	1004.87	–	1594	1593.1	–	1.43	1.188	0.938
x2 = 0.9602	1007.37	1003.85	–	1586	1586.2	–	1.365	1.135	0.898
x2 = 0.97	1005	1001.61	–	1568.2	1572.1	–	1.233	1.025	0.817
x2 = 0.9801	1002.45	999.19	–	1547.1	1556.1	–	1.107	0.917	0.737
x2 = 0.9897	999.9	996.76	–	1525.3	1539.3	–	0.997	0.819	0.667
x2 = 0.9921	999.25	996.14	–	1519.1	1534.1	–	0.971	0.795	0.65
x2 = 0.9951	998.42	995.35	–	1511	1528.8	–	0.939	0.766	0.629
